Laboratory results from paper PMC7318646 (Chemmedchem, 2020).

Columns and labels:
HSA [1] = target: T1, HSA (Homo sapiens, UniProt P02768); test: Three-dye; assay type: binding; details: three dyes 8 μM each on HSA 25 μM
HSA [2] = target: T1, HSA; test: switchSENSE molecular dynamics mode; details: compound concentration tenfold higher than KD

T1 sequence (P02768 25-609): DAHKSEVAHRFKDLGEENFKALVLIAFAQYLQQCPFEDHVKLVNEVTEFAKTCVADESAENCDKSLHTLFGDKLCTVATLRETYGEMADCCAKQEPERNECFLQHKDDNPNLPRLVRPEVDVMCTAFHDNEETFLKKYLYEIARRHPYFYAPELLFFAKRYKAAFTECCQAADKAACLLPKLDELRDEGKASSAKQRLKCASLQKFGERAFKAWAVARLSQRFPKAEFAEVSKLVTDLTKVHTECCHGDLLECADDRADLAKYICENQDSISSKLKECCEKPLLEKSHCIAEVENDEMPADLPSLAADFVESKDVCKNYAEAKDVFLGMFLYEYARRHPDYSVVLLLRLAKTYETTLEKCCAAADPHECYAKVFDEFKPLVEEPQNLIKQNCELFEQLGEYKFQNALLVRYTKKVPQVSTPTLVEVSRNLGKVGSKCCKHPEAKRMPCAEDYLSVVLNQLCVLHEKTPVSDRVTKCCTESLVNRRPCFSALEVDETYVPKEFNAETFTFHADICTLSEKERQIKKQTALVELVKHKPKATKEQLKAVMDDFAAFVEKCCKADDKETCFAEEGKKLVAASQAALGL

CCC(Cc1c(I)cc(I)c(O)c1I)C(=O)O (stereo not drawn) [Iophenoxic acid, iophenoxic acid]
displacement of dimethylamino-BODIPY 5 a (Sudlow-site II probe) (HSA [1]): competitive
displacement of warfarin derivative 8 a (Sudlow-site I probe) (HSA [1]): competitive

(7‐nitrobenz‐2‐oxa‐1,3‐diazol‐4‐yl)‐C12 fatty acid [NBD‐FA]
conformational change of HSA upon binding (molecular dynamics mode) (HSA [2]): significant expansion

O=C(O)CCNC(=O)c1ccc(/N=N/c2ccc(O)c(C(=O)O)c2)cc1 [balsalazide]
displacement of NBD-FA (fatty acid binding site probe) (HSA [1]): same behavior
displacement of dimethylamino-BODIPY 5 a (Sudlow-site II probe) (HSA [1]): same behavior
displacement of warfarin derivative 8 a (Sudlow-site I probe) (HSA [1]): same behavior
